Measurements taken from patent publication US20230146455A1, “TREATMENT OF INFLAMMATORY DISEASES WITH PEPTIDES AND PHARMACEUTICAL COMPOSITIONS” (Yuyu Pharma, Inc., priority 2020, published 2023).
Where “and” joins values, the source holds several entries; their conditions need not be identical. Equal values may be shown once. Where a SMILES comes first, the peptide text is derived from it. [ ]: non-standard residue; d: D form. Hyp = O=C(O)[C@@H]1C[C@@H](O)CN1

Test system: IL-2
Test: Example 9 Luminex, LPS hPBMCs: IL-2
Format: cell-based, human
Method: Treatment Human PBMCs were pretreated with YY-101, YDE-011 and YDE-043 or reference compound; Xiidra® at various concentration (ranging from 1 nM to 100 uM) for 2 h before stimulation. An equal volume of 0.5% DMSO was used as a vehicle control. Then, the cells were treated with LPS at 5 ug/ml. The supernatants from treated cells were harvested at 24 h and placed in a 96 well for Luminex cytokine & chemokine profiling using a Luminex 200 multiplex assay (Luminex; R&D system, USA).
The main study arm with triplicate wells per group in a 24-well plate: • 1. Blank • 2. PBMC: 0.5% DMSO • 3. PBMC+LPS (5 ug/ml) • 4. PBMC+YY-101 100 uM • 5. PBMC+YY-101 10 uM • 6. PBMC+YY-101 1 uM • 7. PBMC+YY-101 0.1 uM • 8. PBMC+YY-101 0.01 uM • 9. PBMC+LPS (5 ug/ml)+Xiidra®100 uM • 10. PBMC+LPS (5 ug/ml)+Xiidra® 10 uM • 11. PBMC+LPS (5 ug/ml)+Xiidra® 1 uM • 12. PBMC+LPS (5 ug/ml)+Xiidra®0.1 uM • 13. PBMC+LPS (5 ug/ml)+Xiidra®0.01 uM • 14. PBMC+LPS (5 ug/ml)+Xiidra®0.001 uM • 15. PBMC+LPS (5 ug/ml)+YY-101 100 uM • 16. PBMC+LPS (5 ug/ml)+YY-101 10 uM • 17. PBMC+LPS (5 ug/ml)+YY-101 1 uM • 18. PBMC+LPS (5 ug/ml)+YY-101 0.1 uM • 19. PBMC+LPS (5 ug/ml)+YY-101 0.01 uM • 20. PBMC+LPS (5 ug/ml)+YY-101 0.001 uM • 21. PBMC+LPS (5 ug/ml)+YDE-011 100 uM • 22. PBMC+LPS (5 ug/ml)+YDE-011 10 uM • 23. PBMC+LPS (5 ug/ml)+YDE-011 1 uM • 24. PBMC+LPS (5 ug/ml)+YDE-011 0.1 uM • 25. PBMC+LPS (5 ug/ml)+YDE-011 0.01 uM • 26. PBMC+LPS (5 ug/ml)+YDE-011 0.001 uM • 27. PBMC+LPS (5 ug/ml)+YDE-043 100 uM • 28. PBMC+LPS (5 ug/ml)+YDE-043 10 uM • 29. PBMC+LPS (5 ug/ml)+YDE-043 1 uM • 30. PBMC+LPS (5 ug/ml)+YDE-043 0.1 uM • 31. PBMC+LPS (5 ug/ml)+YDE-043 0.01 uM • 32. PBMC+LPS (5 ug/ml)+YDE-043 0.001 uM
Multiplex assay was used to measure 30 cytokines and chemokines. The 1:2, 1:10 and 1:200 diluted cell supernatant and serial dilution of the standard were dispensed into a 96 well plate at 50 ul/well. Then, the pre-mixed cocktail of antibody-coated magnetic beads was dispensed at 50 ul/well and incubated at room temperature for 2 h in a horizontal orbital microplate shaker at 800±500 rpm. The beads were washed using a magnetic device to prevent loss. The biotin-antibody was dispensed in 50 ul of each well and incubated at room temperature for 1 h in a shaker at 800±500 rpm. After washing, streptavidin-PE was added at 50 ul/well and incubated at room temperature for 30 min in a shaker under the same conditions. Finally, after washing, wash buffer (100 ul/well) was added to the plate and incubated in a shaker for 2 min. The Luminex™ 200 setting were set according to the manufacturer's protocol. The data was calculated with a standard five-parameter logistic nonlinear regression analysis of the data (xPonent software 4.2, USA). The levels of cytokine/chemokine are normalized to the live cell counts (1×10^5 cells/mL) and presented as concentrations per mL (pg/mL or ng/mL).

[1] = PBMC + LPS(5 ug/ml) + test article 0.001 uM, Mean
[2] = PBMC + LPS(5 ug/ml) + test article 0.001 uM, single replicates
[3] = PBMC + LPS(5 ug/ml) + test article 0.01 uM, Mean
[4] = PBMC + LPS(5 ug/ml) + test article 0.01 uM, single replicates
[5] = PBMC + LPS(5 ug/ml) + test article 0.1 uM, Mean
[6] = PBMC + LPS(5 ug/ml) + test article 0.1 uM, single replicates
[7] = PBMC + LPS(5 ug/ml) + test article 1 uM, Mean
[8] = PBMC + LPS(5 ug/ml) + test article 1 uM, single replicates
[9] = PBMC + LPS(5 ug/ml) + test article 10 uM, Mean
[10] = PBMC + LPS(5 ug/ml) + test article 10 uM, single replicates
[11] = PBMC + LPS(5 ug/ml) + test article 100 uM, Mean
[12] = PBMC + LPS(5 ug/ml) + test article 100 uM, single replicates

## CC(C)C[C@H](NC(=O)CNC(=O)[C@H](CC(C)C)NC(=O)[C@H](CCC(N)=O)NC(=O)CNC(=O)[C@@H]1C[C@@H](O)CN1)C(=O)N[C@@H](C)C(=O)NCC(=O)N1CCC[C@H]1C(=O)N[C@@H](CCCCN)C(=O)O [YDE-011] (H-[Hyp]GQLGLAGPK-OH)
[1]
  IL-2 conc/live cell: 0.0 pg/10^5
  MFI, Bead name: IL-2: 4.0
[2]
  IL-2 conc/live cell: 0.0 pg/10^5
  MFI, Bead name: IL-2: 4.0
[3]
  IL-2 conc/live cell: 0.0 pg/10^5
  MFI, Bead name: IL-2: 5.0
[4]
  IL-2 conc/live cell: 0.0 pg/10^5
  MFI, Bead name: IL-2: 5.0
[5]
  IL-2 conc/live cell: 0.0 pg/10^5
  MFI, Bead name: IL-2: 6.7
[6]
  IL-2 conc/live cell: 0.0 pg/10^5
  MFI, Bead name: IL-2: 7.0 and 8.0 and 5.0
[7]
  IL-2 conc/live cell: 0.0 pg/10^5
  MFI, Bead name: IL-2: 5.3
[8]
  IL-2 conc/live cell: 0.0 pg/10^5
  MFI, Bead name: IL-2: 6.0 (2×) and 4.0
[9]
  IL-2 conc/live cell: 0.0 pg/10^5
  MFI, Bead name: IL-2: 5.3
[10]
  IL-2 conc/live cell: 0.0 pg/10^5
  MFI, Bead name: IL-2: 6.0 and 5.0 (2×)
[11]
  IL-2 conc/live cell: 0.0 pg/10^5
  MFI, Bead name: IL-2: 4.0
[12]
  IL-2 conc/live cell: 0.0 pg/10^5
  MFI, Bead name: IL-2: 4.0 and 2.0 and 6.0

## CC(C)C[C@H](NC(=O)[C@H](CCC(N)=O)NC(=O)CNC(=O)[C@@H]1C[C@@H](O)CN1)C(=O)NCC(=O)O [YDE-043] (H-[Hyp]GQLG-OH; N-terminus and C-terminus assumed)
[1]
  IL-2 conc/live cell: 0.0 pg/10^5
  MFI, Bead name: IL-2: 6.3
[2]
  IL-2 conc/live cell: 0.0 pg/10^5
  MFI, Bead name: IL-2: 3.0 and 8.0 (2×)
[3]
  IL-2 conc/live cell: 0.0 pg/10^5
  MFI, Bead name: IL-2: 4.7
[4]
  IL-2 conc/live cell: 0.0 pg/10^5
  MFI, Bead name: IL-2: 6.0 and 4.0 (2×)
[5]
  IL-2 conc/live cell: 0.0 pg/10^5
  MFI, Bead name: IL-2: 5.7
[6]
  IL-2 conc/live cell: 0.0 pg/10^5
  MFI, Bead name: IL-2: 6.0 and 3.0 and 8.0
[7]
  IL-2 conc/live cell: 0.0 pg/10^5
  MFI, Bead name: IL-2: 3.0
[8]
  IL-2 conc/live cell: 0.0 pg/10^5
  MFI, Bead name: IL-2: 3.0 and 2.0 and 4.0
[9]
  IL-2 conc/live cell: 0.0 pg/10^5
  MFI, Bead name: IL-2: 3.3
[10]
  IL-2 conc/live cell: 0.0 pg/10^5
  MFI, Bead name: IL-2: 3.0 and 2.0 and 5.0
[11]
  IL-2 conc/live cell: 0.0 pg/10^5
  MFI, Bead name: IL-2: 2.0
[12]
  IL-2 conc/live cell: 0.0 pg/10^5
  MFI, Bead name: IL-2: 2.0
